Patent US20190029257A1, “APPLICATION FOR HERBICIDE-TOLERANT PROTEIN” (BEIJING DABEINONG TECHNOLOGY GROUP CO., LTD., priority 2016, published 2019)

Legend:
[1] = system: Zm chloroplastic ALT-2-02 maize plants; assay: Halosulfuron-methyl tolerance of maize plants (damage degree); format: in vivo; conditions: 36 g ai/ha (4x Hal.); for Average damage % 3 DAT: 3 days after spraying; for Average damage % 7 DAT: 7 days after spraying; for Average damage % 14 DAT: 14 days after spraying; for Average damage % 21 DAT: 21 days after spraying
Description: (§1) The herbicide tolerance effects of Zm cytoplasmic ALT-1-02 maize plants, Zm chloroplastic ALT-1-02 maize plants, Zm cytoplasmic ALT-2-02 maize plants, Zm chloroplastic ALT-2-02 maize plants, Zm cytoplasmic ALT-3-02 maize plants, Zm chloroplastic ALT-3-02 maize plants and wild-type maize plants on halosulfuron-methyl were detected (at V3-V4 stage), respectively.
(§2) Zm cytoplasmic ALT-1-02 maize plants, Zm chloroplastic ALT-1-02 maize plants, Zm cytoplasmic ALT-2-02 maize plants, Zm chloroplastic ALT-2-02 maize plants, Zm cytoplasmic ALT-3-02 maize plants, Zm chloroplastic ALT-3-02 maize plants and wild-type maize plants were respectively taken and sprayed with halosulfuron-methyl (36 g ai/ha, 4-fold field concentration) and a blank solvent (water). The damage degree caused by the herbicide was measured for each plant according to the plant growth status 3 days after spraying (3 DAT), 7 days after spraying (7 DAT), 14 days after spraying (14 DAT) and 21 days after spraying (21 DAT), respectively: considering a growth status equivalent to that of the untreated plants as having a damage degree of 0%; considering conditions of leaves being partially chlorotic and yellow but substantially not affecting the plant normal growth as having a damage degree of 50%; and considering the whole plant being purple and dying as having a damage degree of 100%. There were 2 strains in Zm cytoplasmic ALT-1-02 maize plants in total (S13 and S14), 2 strains in Zm chloroplastic ALT-1-02 maize plants in total (S15 and S16), 2 strains in Zm cytoplasmic ALT-2-02 maize plants in total (S17 and S18), 2 strains in Zm chloroplastic ALT-2-02 maize plants in total (S19 and S20), 2 strains in Zm cytoplasmic ALT-3-02 maize plants in total (S21 and S22), 2 strains in Zm chloroplastic ALT-3-02 maize plants in total (S23 and S24), and 1 strain in wild- type maize plants (CK2) in total; and 10-15 plants were selected from each strain and tested.

[2] = system: Zm chloroplastic ALT-3-02 maize plants; assay: as above; format: in vivo; conditions: 36 g ai/ha (4x Hal.); for Average damage % 3 DAT: 3 days after spraying; for Average damage % 7 DAT: 7 days after spraying; for Average damage % 14 DAT: 14 days after spraying; for Average damage % 21 DAT: 21 days after spraying
Description: as §1, §2

COC(=O)c1c(Cl)nn(C)c1S(=O)(=O)NC(=O)Nc1nc(OC)cc(OC)n1 [halosulfuron-methyl, 3-chlorine-5-(4,6-dimethoxypyrimidine-2-aminocarbonylaminosulphonyl)-1-methylpyrazole-4-carboxylic acid methyl ester]
0%: Average damage % 3 DAT ([1]; strain S19) | Average damage % 7 DAT ([1]; strain S19) | Average damage % 14 DAT ([1]; strain S19) | Average damage % 21 DAT ([1]; strain S19) | Average damage % 3 DAT ([1]; strain S20) | Average damage % 7 DAT ([1]; strain S20) | Average damage % 14 DAT ([1]; strain S20) | Average damage % 21 DAT ([1]; strain S20) | Average damage % 3 DAT ([2]; strain S23) | Average damage % 7 DAT ([2]; strain S23) | Average damage % 14 DAT ([2]; strain S23) | Average damage % 21 DAT ([2]; strain S23) | Average damage % 3 DAT ([2]; strain S24) | Average damage % 7 DAT ([2]; strain S24) | Average damage % 14 DAT ([2]; strain S24) | Average damage % 21 DAT ([2]; strain S24)
